Results on two compounds are retold here after patent publication US20090274773A1, “ANTIPROLIFERATIVE COMBINATION COMPRISING CYC-682 AND A CYTOTOXIC AGENT” (Cyclacel Limited, priority 2005, published 2009).

Common to all, as to assay type: cell-based, human
One experiment relates to COLO205 cancer cell line. Kind of experiment: CYC682 drug-combination study (MTT, Chou and Talalay combination index, isobolograms). The method, then: (§1) For simultaneous drug exposure, cells were seeded at 2×10^3 cells/well in 96-well plates and treated 24 hours later with increasing concentrations of CYC682 alone or with various concentrations of another drug corresponding to the IC20, IC40 or IC60 values. After approximately four doubling times (120 hours), the growth inhibitory effect was measured by the MTT assay.
(§2) Cells were seeded at 2×10^3 cells/well in 96-well plates and allowed to grow for 24 hour. Cells were then exposed to various concentrations of the first drug for 1 hour/24 hours/48 hours, the drug was removed, the cells were washed and the second drug was added. After additional drug exposure, the second drug was removed, the cells were washed and incubated in drug-free medium for 72 hours. Growth inhibition was then determined by the MTT assay.
(§3) Effects of drug combinations were evaluated using the Chou and Talalay method which is based on the median-effect principle (Chou T C, Talalay P. Quantitative analysis of dose-effect relationships: the combined effects of multiple drugs or enzyme inhibitors. Adv Enzyme Regul. 1984; 22:27-55). […] On the basis of the slope of the curve for each drug in a combination, it can be determined whether the drugs have mutually nonexclusive effects (e.g., independent or interactive modes of action).
(§4) The combination index (CI) is then determined by the equation:
(§5) CI=[(C)1/(Cx)1]+[(C)2/(Cx)2]+[α(C)1(C)2/(Cx)1(Cx)2],
(§6) where (Cx)1 is the concentration of drug 1 required to produce an x percent effect of that drug alone, and (C)1, the concentration of drug 1 required to produce the same x percent effect in combination with (C)2. If the mode of action of the drugs is mutually exclusive or nonexclusive, then α is 0 or 1, respectively. CI values will be calculated with this equation using different values of fa (i.e., for different degrees of cell growth inhibition). CI values of <1 indicate synergy, the value of 1 indicates additive effects, and values >1 indicate antagonism. Data were analyzed on an IBM-PC computer using concentration-effect analysis for microcomputer software (Biosoft, Cambridge, UK). For statistical analysis and graphs we will use Instat and Prism software (GraphPad, San Diego, USA). The dose-effect relationships for the drugs tested, alone or in paired combinations, were subjected to median-effect plot analysis to determine their relative potency (IC50), shape (m), and conformity (r) in each selected cell line. As stated above, the IC50 and m values were respectively used to calculate synergism and antagonism on the basis of the CI equation. Results were expressed as the mean±standard deviation of at least 3 experiments performed in duplicate. In each experiment, cells were exposed to the paired combinations for 48 hours as described above. Means and standard deviations were compared using Student's t-test (two-sided p value).
(§7) The effect of sequential and simultaneous exposure (FIG. 2) to CYC682 with oxaliplatin, doxorubicin, docetaxel and gemcitabine was studied in two sensitive colon cancer cell lines—COLO205 and HCT116 using combination indices that represent an affected fraction for the concentration of drugs corresponding to IC50 as previously described by Chou and Talalay.

Another experiment concerns HCT116 cancer cell line. The experiment is described as above. The procedure: as §1, §2, §3, §4, §5, §6, §7
The subject of experiment [1] is NSCLC cell line RERF-LC-MA. As to the kind of experiment: CNDAC combinations (alamar blue, Calcusyn Combination Index). The note with it: named agent in combination with CNDAC, simultaneous treatment 72 h. The method, then: Experiments in the NSCLC cell lines H1299 or RERF-LC-MA were performed in 96-well plates, with cells seeded at a density of 3,000/well, in DMEM containing 10% (v/v) FCS. Stock solutions of all drugs were made up in dimethylsulfoxide (DMSO), with the exception of gemcitabine, which was dissolved in 0.9% (w/v) sterile saline solution.
For experimental assessment of potential synergistic interactions, the concomitant treatment regime involved simultaneous treatment of cells with CNDAC and the other agent under investigation for 72 h, alongside suitable controls of cells treated with the individual compounds alone for 72 hr. In the sequential treatment regimes, one drug was added to the cells 2 h after plating, and left for 24 h. Media was then aspirated, replaced with fresh media containing the second drug and incubated for 72 h. The two individual treatment controls for the sequential treatment regime involved substituting one of the drug treatments with drug-free media. After drug treatment, the number of cells in each well was estimated by incubating for 1 h in media containing 10% alamar blue (Roche, Lewes, East Sussex, U.K.) and measuring the absorbance at 488-595 nm. Drug interactions were analysed using the Calcusyn software package (BioSoft, Cambridge, U.K.) described below. A Combination Index (C.I.) of 1 indicates an additive drug interaction, whereas a C.I. greater than 1 is antagonistic and a score lower than 1 is synergistic.

`CC(=O)O[C@@]12CO[C@@H]1C[C@H](O)[C@@]1(C)C(=O)[C@H](O)C3=C(C)[C@@H](OC(=O)[C@H](O)[C@@H](NC(=O)OC(C)(C)C)c4ccccc4)C[C@@](O)([C@@H](OC(=O)c4ccccc4)[C@H]21)C3(C)C` [Docetaxel]: the “Interaction with CYC682 (isobologram)” value with COLO205 cancer cell line (COLO205, named agent given prior to CYC682) is recorded as “synergistic effect”. The “Interaction with CYC682 (isobologram)” value with HCT116 cancer cell line (HCT116, named agent given prior to CYC682) is reported as “synergistic effect”. In experiment [1], the “Combination Index at ED50, Concomitant” value is reported as 0.9; the “Combination Index at ED75, Concomitant” value is recorded as 0.97; the “Combination Index at ED90, Concomitant” value is 1.1.

Turning to `COc1cccc2c1C(=O)c1c(O)c3c(c(O)c1C2=O)C[C@@](O)(C(=O)CO)C[C@@H]3O[C@H]1C[C@H](N)[C@H](O)[C@H](C)O1` [Doxorubicin], the “Interaction with CYC682 (isobologram)” value in the experiment with COLO205 cancer cell line (COLO205 (FIG. 5), sequential exposure, at high concentrations) is on record as “synergistic”; in the experiment on HCT116 cancer cell line (HCT116 (FIG. 5), sequential exposure, at high concentrations), “synergistic”.
